Test results published in patent publication EP1027349B1, “TETRAHYDROFURAN PHOSPHATE- AND HYDROXY ESTERS, AS PRODRUGS FOR THE CORRESPONDING ANTIFUNGAL AGENT” (SCHERING CORPORATION, priority 1997, dated 1999).

How the values were obtained:
[1] = Plasma concentrations and PK parameters of the compound of formula IV in mice after intravenous administration of di-NMG salt prodrugs; format: in vivo, mouse; design: AUC: unit not given here; settings: for Concentrations of the compound of formula IV in pooled mouse plasma, Pool 1 / Concentrations of the compound of formula IV in pooled mouse plasma, Pool 2: 2 mice/pool; for AUC: Table 3 summary: area under the curve from time zero to 24 hrs of the compound of formula IV in mouse plasma; for AUC / Bioavallability: intravenous, 20 mg/kg formula IV dose equivalent of the di-NMG salt in sterile water; for Bioavallability: of the compound of formula IV in mouse plasma
[2] = tested on: Cryptococcus neoformans (n=9); assay: In vitro antifungal activity (MIC), NCCLS standard M27A; settings: for MIC Range: Cryptococcus neoformans (n=9); for MIC: Cryptococcus neoformans, read-out: G mean MICs
Candida species (n=41) = assay: as above; settings: for MIC Range: Candida species (n=41); for MIC: Candida, read-out: G mean MICs
[3] = tested on: Aspergillus species (n=30); assay: In vitro antifungal activity (MIC), Espinel-Ingroff's methodology; settings: for MIC Range: Aspergillus species (n=30); for MIC: Aspergillus, read-out: G mean MICs
[4] = Antifungal activity in in vivo tests in mice; settings: compared with itraconazole, fluconazole and azoles of USP 5,039,676 and WO 93/09114, result in words
Aspergillus fumigatus = assay: Pulmonary Aspergillus fumigatus infection model in mice (Loebenberg et al.)
[5] = Pharmacokinetic (metabolism) studies in human tissues and serum; format: in vitro ADME; settings: result in words
[6] = 0.017 hr (1 min) after intravenous administration of 20 mg/kg compound of formula IV dose equivalent of the di-NMG salt in sterile water
[7] = 0.017 hr (1 min) after intravenous administration of 20 mg/kg compound of formula IV dose equivalent of the di-NMG salt in sterile water, mean of 2 pools
[8] = 0.05 hr (3 min) after intravenous administration of 20 mg/kg compound of formula IV dose equivalent of the di-NMG salt in sterile water
[9] = 0.05 hr (3 min) after intravenous administration of 20 mg/kg compound of formula IV dose equivalent of the di-NMG salt in sterile water, mean of 2 pools
[10] = 0.083 hr (5 min) after intravenous administration of 20 mg/kg compound of formula IV dose equivalent of the di-NMG salt in sterile water
[11] = 0.083 hr (5 min) after intravenous administration of 20 mg/kg compound of formula IV dose equivalent of the di-NMG salt in sterile water, mean of 2 pools
[12] = 0.25 hr (15 min) after intravenous administration of 20 mg/kg compound of formula IV dose equivalent of the di-NMG salt in sterile water
[13] = 0.25 hr (15 min) after intravenous administration of 20 mg/kg compound of formula IV dose equivalent of the di-NMG salt in sterile water, mean of 2 pools
[14] = 0.5 hr (30 min) after intravenous administration of 20 mg/kg compound of formula IV dose equivalent of the di-NMG salt in sterile water
[15] = 0.5 hr (30 min) after intravenous administration of 20 mg/kg compound of formula IV dose equivalent of the di-NMG salt in sterile water, mean of pools
[16] = 1 hr. after intravenous administration of 20 mg/kg compound of formula IV dose equivalent of the di-NMG salt in sterile water
[17] = 1 hr. after intravenous administration of 20 mg/kg compound of formula IV dose equivalent of the di-NMG salt in sterile water, mean of 2 pools
[18] = 3 hr. after intravenous administration of 20 mg/kg compound of formula IV dose equivalent of the di-NMG salt in sterile water
[19] = 3 hr. after intravenous administration of 20 mg/kg compound of formula IV dose equivalent of the di-NMG salt in sterile water, mean of 2 pools
[20] = 6 hr. after intravenous administration of 20 mg/kg compound of formula IV dose equivalent of the di-NMG salt in sterile water
[21] = 6 hr. after intravenous administration of 20 mg/kg compound of formula IV dose equivalent of the di-NMG salt in sterile water, mean of 2 pools
[22] = 24 hr. after intravenous administration of 20 mg/kg compound of formula IV dose equivalent of the di-NMG salt in sterile water
[23] = 24 hr. after intravenous administration of 20 mg/kg compound of formula IV dose equivalent of the di-NMG salt in sterile water, mean of 2 pools

CC[C@@H]([C@H](C)OC(=O)CCCOP(=O)(O)O)n1ncn(-c2ccc(N3CCN(c4ccc(OC[C@@H]5CO[C@@](Cn6cncn6)(c6ccc(F)cc6F)C5)cc4)CC3)cc2)c1=O [Formula II.2NMG]
Concentrations of the compound of formula IV in pooled mouse plasma, Pool 1 [1, 6]: 171 ng/mL
Concentrations of the compound of formula IV in pooled mouse plasma, Pool 2 [1, 6]: 164 ng/mL
Concentrations of the compound of formula IV in pooled mouse plasma, Mean [1, 7]: 168 ng/mL
Concentrations of the compound of formula IV in pooled mouse plasma, Pool 1 [1, 8]: 378 ng/mL
Concentrations of the compound of formula IV in pooled mouse plasma, Pool 2 [1, 8]: 297 ng/mL
Concentrations of the compound of formula IV in pooled mouse plasma, Mean [1, 9]: 338 ng/mL
Concentrations of the compound of formula IV in pooled mouse plasma, Pool 1 [1, 10]: 798 ng/mL
Concentrations of the compound of formula IV in pooled mouse plasma, Pool 2 [1, 10]: 817 ng/mL
Concentrations of the compound of formula IV in pooled mouse plasma, Mean [1, 11]: 808 ng/mL
Concentrations of the compound of formula IV in pooled mouse plasma, Pool 1 [1, 12]: 1570 ng/mL
Concentrations of the compound of formula IV in pooled mouse plasma, Pool 2 [1, 12]: 2720 ng/mL
Concentrations of the compound of formula IV in pooled mouse plasma, Mean [1, 13]: 2150 ng/mL
Concentrations of the compound of formula IV in pooled mouse plasma, Pool 1 [1, 14]: 3020 ng/mL
Concentrations of the compound of formula IV in pooled mouse plasma, Pool 2 [1, 14]: 2340 ng/mL
Concentrations of the compound of formula IV in pooled mouse plasma, Mean [1, 15]: 2680 ng/mL
Concentrations of the compound of formula IV in pooled mouse plasma, Pool 1 [1, 16]: 4460 ng/mL
Concentrations of the compound of formula IV in pooled mouse plasma, Pool 2 [1, 16]: 3950 ng/mL
Concentrations of the compound of formula IV in pooled mouse plasma, Mean [1, 17]: 4210 ng/mL
Concentrations of the compound of formula IV in pooled mouse plasma, Pool 1 [1, 18]: 5160 ng/mL
Concentrations of the compound of formula IV in pooled mouse plasma, Pool 2 [1, 18]: 5630 ng/mL
Concentrations of the compound of formula IV in pooled mouse plasma, Mean [1, 19]: 5400 ng/mL
Concentrations of the compound of formula IV in pooled mouse plasma, Pool 1 [1, 20]: 5960 ng/mL
Concentrations of the compound of formula IV in pooled mouse plasma, Pool 2 [1, 20]: 3590 ng/mL
Concentrations of the compound of formula IV in pooled mouse plasma, Mean [1, 21]: 4780 ng/mL
Concentrations of the compound of formula IV in pooled mouse plasma, Pool 1 [1, 22]: 915 ng/mL
Concentrations of the compound of formula IV in pooled mouse plasma, Pool 2 [1, 22]: 992 ng/mL
Concentrations of the compound of formula IV in pooled mouse plasma, Mean [1, 23]: 954 ng/mL
AUC [1]: 79.1
Bioavallability [1]: 65%

CC[C@@H]([C@H](C)OC(=O)CCCO)n1ncn(-c2ccc(N3CCN(c4ccc(OC[C@@H]5CO[C@@](Cn6cncn6)(c6ccc(F)cc6F)C5)cc4)CC3)cc2)c1=O [Formula III, 2(S)-[4-{4-{4-{4-[[(R-Cis) -2-(2,4-difluorophenyl)-tetrahydro-2-(1H-1,2,4-triazol-1-ylmethyl)-4-furanyl]methoxy]phenyl]-1-piperazinyl]phenyl]-4,5-dihydro-5-oxo-1H-1,2,4-triazol-1-yl]-1-(S)-methylbutyl-4-hydroxy-butanoate]
MIC Range [2]: 0.0156 to 0.5 µg/mL
MIC [2]: 0.09 µg/mL
MIC Range (Candida species (n=41)): ≤ 0.0156 to 8 µg/mL
MIC (Candida species (n=41)): 0.3 µg/mL
MIC Range [3]: 0.0313 to 2 µg/mL
MIC [3]: 0.2 µg/mL
antifungal activity in in vivo tests [4]: unexpectedly better than that of existing antifungal agents

CC[C@@H]([C@H](C)OC(=O)CCCOP(=O)(O)O)n1ncn(-c2ccc(N3CCN(c4ccc(OC[C@@H]5CO[C@@](Cn6cncn6)(c6ccc(F)cc6F)C5)cc4)CC3)cc2)c1=O [Formula II]
MIC Range [2]: 0.125 to 32 µg/mL
MIC [2]: 1.9 µg/mL
MIC (Candida species (n=41)): 7.5 µg/mL
survival (Aspergillus fumigatus; doses of 10 mg/kg, mice with a pulmonary Aspergillus fumigatus infection): 70%
MIC [3]: 5.9 µg/mL
metabolism [5]: metabolized to the compound of formula IV via the metabolite represented by formula III

CC[C@@H]([C@H](C)O)n1ncn(-c2ccc(N3CCN(c4ccc(OC[C@@H]5CO[C@@](Cn6cncn6)(c6ccc(F)cc6F)C5)cc4)CC3)cc2)c1=O [Formula IV, reference compound]
MIC Range [2]: ≤0.0150 to 0.5 µg/mL
MIC [2]: 0.04 µg/mL
MIC Range (Candida species (n=41)): ≤0.0156 to 8 µg/mL
MIC (Candida species (n=41)): 0.2 µg/mL
MIC Range [3]: ≤0.0156 to 1 µg/mL
MIC [3]: 0.1 µg/mL
antifungal activity in in vivo tests [4]: unexpectedly better than that of existing antifungal agents

CC[C@@H]([C@H](C)OC(=O)CCCCOP(=O)(O)O)n1ncn(-c2ccc(N3CCN(c4ccc(OC[C@@H]5CO[C@@](Cn6cncn6)(c6ccc(F)cc6F)C5)cc4)CC3)cc2)c1=O [Formula V.2NMG, reference compound]
Concentrations of the compound of formula IV in pooled mouse plasma, Pool 1 [1, 6]: 0 ng/mL
Concentrations of the compound of formula IV in pooled mouse plasma, Pool 2 [1, 6]: 0 ng/mL
Concentrations of the compound of formula IV in pooled mouse plasma, Mean [1, 7]: 0 ng/mL
Concentrations of the compound of formula IV in pooled mouse plasma, Pool 1 [1, 8]: 738 ng/mL
Concentrations of the compound of formula IV in pooled mouse plasma, Pool 2 [1, 8]: 663 ng/mL
Concentrations of the compound of formula IV in pooled mouse plasma, Mean [1, 9]: 723 ng/mL
Concentrations of the compound of formula IV in pooled mouse plasma, Pool 1 [1, 10]: 1040 ng/mL
Concentrations of the compound of formula IV in pooled mouse plasma, Pool 2 [1, 10]: 1430 ng/mL
Concentrations of the compound of formula IV in pooled mouse plasma, Mean [1, 11]: 1240 ng/mL
Concentrations of the compound of formula IV in pooled mouse plasma, Pool 1 [1, 12]: 1220 ng/mL
Concentrations of the compound of formula IV in pooled mouse plasma, Pool 2 [1, 12]: 407 ng/mL
Concentrations of the compound of formula IV in pooled mouse plasma, Mean [1, 13]: 814 ng/mL
Concentrations of the compound of formula IV in pooled mouse plasma, Pool 1 [1, 14]: 1990 ng/mL
Concentrations of the compound of formula IV in pooled mouse plasma, Mean [1, 15]: 1990 ng/mL
Concentrations of the compound of formula IV in pooled mouse plasma, Pool 1 [1, 16]: 2730 ng/mL
Concentrations of the compound of formula IV in pooled mouse plasma, Pool 2 [1, 16]: 2630 ng/mL
Concentrations of the compound of formula IV in pooled mouse plasma, Mean [1, 17]: 2680 ng/mL
Concentrations of the compound of formula IV in pooled mouse plasma, Pool 1 [1, 18]: 923 ng/mL
Concentrations of the compound of formula IV in pooled mouse plasma, Pool 2 [1, 18]: 2510 ng/mL
Concentrations of the compound of formula IV in pooled mouse plasma, Mean [1, 19]: 1720 ng/mL
Concentrations of the compound of formula IV in pooled mouse plasma, Pool 1 [1, 20]: 2590 ng/mL
Concentrations of the compound of formula IV in pooled mouse plasma, Pool 2 [1, 20]: 1900 ng/mL
Concentrations of the compound of formula IV in pooled mouse plasma, Mean [1, 21]: 2250 ng/mL
Concentrations of the compound of formula IV in pooled mouse plasma, Pool 1 [1, 22]: 447 ng/mL
Concentrations of the compound of formula IV in pooled mouse plasma, Pool 2 [1, 22]: 515 ng/mL
Concentrations of the compound of formula IV in pooled mouse plasma, Mean [1, 23]: 481 ng/mL
AUC [1]: 36.7
Bioavallability [1]: 30%

OC(Cn1cncn1)(Cn1cncn1)c1ccc(F)cc1F [fluconazole, reference compound]
activity in Aspergillus pulmonary infection model (Aspergillus fumigatus; mice, result in words): inactive
